Laboratory results published in PubChem BioAssay (NCI).
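Test compounds were applied to cells in 96-well plates for 48 hours at 5 doses. TGI marks complete inhibition of growth.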

Assays:
Assay in all cases: growth of human tumour cells (NCI), 48 h
A498 renal = test system: A498 renal
A549 NSCLC = test system: A549 NSCLC
ACHN renal = test system: ACHN renal
DLD-1 colon = test system: DLD-1 colon
DMS 114 small cell lung = test system: DMS 114 small cell lung
EKVX NSCLC = test system: EKVX NSCLC
HCC-2998 colon = test system: HCC-2998 colon
HCT-116 colon = test system: HCT-116 colon
HCT-15 colon = test system: HCT-15 colon
HL-60(TB) leukemia = test system: HL-60(TB) leukemia
HOP-62 NSCLC = test system: HOP-62 NSCLC
HT29 colon = test system: HT29 colon
IGROV1 ovarian = test system: IGROV1 ovarian
K-562 leukemia = test system: K-562 leukemia
KM12 colon = test system: KM12 colon
KM20L2 colon = test system: KM20L2 colon
LOX IMVI melanoma = test system: LOX IMVI melanoma
LXFL 529 NSCLC = test system: LXFL 529 NSCLC
M14 melanoma = test system: M14 melanoma
M19-MEL melanoma = test system: M19-MEL melanoma
MALME-3M melanoma = test system: MALME-3M melanoma
MOLT-4 leukemia = test system: MOLT-4 leukemia
NCI-H226 lung = test system: NCI-H226 lung
NCI-H23 lung = test system: NCI-H23 lung
NCI-H460 lung = test system: NCI-H460 lung
OVCAR-3 ovarian = test system: OVCAR-3 ovarian
OVCAR-4 ovarian = test system: OVCAR-4 ovarian
OVCAR-5 ovarian = test system: OVCAR-5 ovarian
RXF 393 renal = test system: RXF 393 renal
SF-268 CNS = test system: SF-268 CNS
SF-295 CNS = test system: SF-295 CNS
SF-539 CNS = test system: SF-539 CNS
SK-MEL-28 melanoma = test system: SK-MEL-28 melanoma
SK-OV-3 ovarian = test system: SK-OV-3 ovarian
SN12C renal = test system: SN12C renal
SNB-19 CNS = test system: SNB-19 CNS
SNB-75 CNS = test system: SNB-75 CNS
SNB-78 CNS = test system: SNB-78 CNS
SR leukemia = test system: SR leukemia
SW-620 colon = test system: SW-620 colon
TK-10 renal = test system: TK-10 renal
U251 CNS = test system: U251 CNS
UACC-257 melanoma = test system: UACC-257 melanoma
UACC-62 melanoma = test system: UACC-62 melanoma
UO-31 renal = test system: UO-31 renal
XF 498 CNS = test system: XF 498 CNS
786-0 renal = test system: 786-0 renal
CAKI-1 renal = test system: CAKI-1 renal
CCRF-CEM leukemia = test system: CCRF-CEM leukemia
COLO 205 colon = test system: COLO 205 colon
DMS 273 small cell lung = test system: DMS 273 small cell lung
HOP-18 NSCLC = test system: HOP-18 NSCLC
HOP-92 NSCLC = test system: HOP-92 NSCLC
NCI-H522 lung = test system: NCI-H522 lung
OVCAR-8 ovarian = test system: OVCAR-8 ovarian
RPMI-8226 leukemia = test system: RPMI-8226 leukemia
SK-MEL-2 melanoma = test system: SK-MEL-2 melanoma
SK-MEL-5 melanoma = test system: SK-MEL-5 melanoma

Measured: TGI

O=C1NC2=C(CCCC/C2=N\O)C12CCCCC2
> 100 µM: A498 renal | A549 NSCLC | ACHN renal | DLD-1 colon | DMS 114 small cell lung | EKVX NSCLC | HCC-2998 colon | HCT-116 colon | HCT-15 colon | HL-60(TB) leukemia | HOP-62 NSCLC | HT29 colon | IGROV1 ovarian | K-562 leukemia | KM12 colon | KM20L2 colon | LOX IMVI melanoma | LXFL 529 NSCLC | M14 melanoma | M19-MEL melanoma | MALME-3M melanoma | MOLT-4 leukemia | NCI-H226 lung | NCI-H23 lung | NCI-H460 lung | OVCAR-3 ovarian | OVCAR-4 ovarian | OVCAR-5 ovarian | RXF 393 renal | SF-268 CNS | SF-295 CNS | SF-539 CNS | SK-MEL-28 melanoma | SK-OV-3 ovarian | SN12C renal | SNB-19 CNS | SNB-75 CNS | SNB-78 CNS | SR leukemia | SW-620 colon | TK-10 renal | U251 CNS | UACC-257 melanoma | UACC-62 melanoma | UO-31 renal | XF 498 CNS

[N-]=[N+]=NC(CCl)c1cn([C@H]2C[C@H](O)[C@@H](CO)O2)c(=O)[nH]c1=O (some centres undefined)
> 100 µM: 786-0 renal | A549 NSCLC | ACHN renal | CAKI-1 renal | CCRF-CEM leukemia | COLO 205 colon | DLD-1 colon | DMS 114 small cell lung | DMS 273 small cell lung | EKVX NSCLC | HCC-2998 colon | HCT-116 colon | HCT-15 colon | HL-60(TB) leukemia | HOP-18 NSCLC | HOP-62 NSCLC | HOP-92 NSCLC | HT29 colon | IGROV1 ovarian | K-562 leukemia | KM12 colon | KM20L2 colon | LOX IMVI melanoma | LXFL 529 NSCLC | M14 melanoma | M19-MEL melanoma | MALME-3M melanoma | MOLT-4 leukemia | NCI-H226 lung | NCI-H23 lung | NCI-H460 lung | NCI-H522 lung | OVCAR-3 ovarian | OVCAR-5 ovarian | OVCAR-8 ovarian | RPMI-8226 leukemia | RXF 393 renal | SF-295 CNS | SF-539 CNS | SK-MEL-2 melanoma | SK-MEL-28 melanoma | SK-MEL-5 melanoma | SK-OV-3 ovarian | SN12C renal | SNB-19 CNS | SNB-75 CNS | SNB-78 CNS | SR leukemia | SW-620 colon | TK-10 renal | U251 CNS | UACC-62 melanoma | UO-31 renal

CCOC(=O)c1nn2c(nc1=O)sc1ccc3ccccc3c12
> 100 µM: 786-0 renal | A549 NSCLC | ACHN renal | CAKI-1 renal | CCRF-CEM leukemia | COLO 205 colon | DLD-1 colon | DMS 114 small cell lung | DMS 273 small cell lung | EKVX NSCLC | HCC-2998 colon | HCT-116 colon | HCT-15 colon | HL-60(TB) leukemia | HOP-18 NSCLC | HOP-62 NSCLC | HOP-92 NSCLC | HT29 colon | IGROV1 ovarian | K-562 leukemia | KM12 colon | KM20L2 colon | LOX IMVI melanoma | LXFL 529 NSCLC | M14 melanoma | M19-MEL melanoma | MALME-3M melanoma | MOLT-4 leukemia | NCI-H226 lung | NCI-H23 lung | NCI-H460 lung | OVCAR-3 ovarian | OVCAR-4 ovarian | OVCAR-5 ovarian | OVCAR-8 ovarian | RPMI-8226 leukemia | RXF 393 renal | SF-268 CNS | SF-295 CNS | SF-539 CNS | SK-MEL-2 melanoma | SK-MEL-28 melanoma | SK-MEL-5 melanoma | SK-OV-3 ovarian | SN12C renal | SNB-19 CNS | SNB-75 CNS | SNB-78 CNS | SR leukemia | SW-620 colon | TK-10 renal | U251 CNS | UACC-257 melanoma | UACC-62 melanoma | UO-31 renal
